According to patent US10233184B2, “7-substituted sulfonimidoylpurinone compounds and derivatives for the treatment and prophylaxis of virus infection” (Hoffmann-La Roche Inc., priority 2016, dated 2019):
Read-outs that look alike come from different tables or passages of the source.

Experiments:
human TLR7 = molecular target: T1, human TLR7 (Homo sapiens, UniProt Q9NYK1); test: HEK293-Blue-hTLR-7 cells assay (SEAP reporter); assay type: cell-based
T1 sequence (Q9NYK1 27-1049): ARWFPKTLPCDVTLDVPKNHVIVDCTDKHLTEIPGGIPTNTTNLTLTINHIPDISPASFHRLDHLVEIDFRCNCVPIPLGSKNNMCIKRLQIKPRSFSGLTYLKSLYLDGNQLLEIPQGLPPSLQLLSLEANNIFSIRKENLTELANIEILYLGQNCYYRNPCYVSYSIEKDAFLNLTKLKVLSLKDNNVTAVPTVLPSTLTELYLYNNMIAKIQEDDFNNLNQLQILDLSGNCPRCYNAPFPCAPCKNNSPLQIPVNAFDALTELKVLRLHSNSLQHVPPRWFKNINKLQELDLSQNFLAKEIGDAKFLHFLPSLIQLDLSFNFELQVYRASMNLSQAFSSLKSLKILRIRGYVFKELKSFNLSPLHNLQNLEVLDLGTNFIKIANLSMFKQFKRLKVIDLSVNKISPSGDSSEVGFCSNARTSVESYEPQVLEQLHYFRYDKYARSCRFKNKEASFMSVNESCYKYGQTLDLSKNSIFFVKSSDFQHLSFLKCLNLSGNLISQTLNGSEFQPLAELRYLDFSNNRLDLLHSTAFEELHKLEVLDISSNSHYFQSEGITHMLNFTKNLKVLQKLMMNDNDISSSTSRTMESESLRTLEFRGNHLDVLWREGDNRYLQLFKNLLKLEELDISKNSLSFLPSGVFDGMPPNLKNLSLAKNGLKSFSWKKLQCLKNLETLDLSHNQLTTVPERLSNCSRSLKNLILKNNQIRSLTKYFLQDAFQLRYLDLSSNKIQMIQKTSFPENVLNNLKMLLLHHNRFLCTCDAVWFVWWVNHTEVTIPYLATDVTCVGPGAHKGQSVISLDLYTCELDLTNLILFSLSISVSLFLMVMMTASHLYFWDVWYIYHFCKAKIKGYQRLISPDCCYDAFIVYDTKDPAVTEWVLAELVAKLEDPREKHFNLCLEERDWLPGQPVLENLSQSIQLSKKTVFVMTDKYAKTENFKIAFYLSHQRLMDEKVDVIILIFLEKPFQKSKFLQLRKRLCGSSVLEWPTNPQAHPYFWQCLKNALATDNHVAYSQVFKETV
Procedure, shortened: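 HEK293-Blue-hTLR7 cells with NF-κB/AP-1-driven SEAP reporter exposed to serially diluted compound (1% DMSO) for 20 hrs at 37° C. Supernatant SEAP measured with QUANTI-Blue after 2 hrs at 37° C, absorbance 620~655 nm; agonism expressed as EC50.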

LYSA solubility study = assay type: physicochemical; conditions: aqueous solubility, 0.05M phosphate buffer pH 6.5
Procedure, shortened: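 Samples from 10 mM DMSO stock were dried, redissolved in 0.05M phosphate buffer pH 6.5, stirred 1 h, shaken 2 h, left overnight and filtered. Filtrate and 1/10 dilution quantified by HPLC-UV; solubility in μg/mL, reported as greater-than when >80% of the maximum sample amount was in solution.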

[1] = Portal vein study: oral PK in PVC/CAC dual cannulated rat; assay type: in vivo; conditions: prodrug 10 mg/kg oral, analyte prodrug
Method: Surgery was performed under pentobarbital/isoflurane anesthesia. Briefly, after disinfecting the abdominal area with betadine and 70% isopropyl alcohol, a small abdominal mid-line incision was made. The cecum was pulled out and mesenteric vein was identified and isolated for about 5 mm vessel. A loose ligature was placed proximally and distal end of the vein was ligated. Make a small incision (just enough to allow the insertion of the catheter) on isolated vein and insert the PU catheter towards liver for appropriate length. The catheter was secured in place by tying the loose ligature around the cannulated vessel. The cecum was replaced into abdominal cavity. A hole was made in the right abdominal wall to make the end of catheter pass freely. The catheter was secured by suture on the abdominal wall. The abdominal muscle incision was closed with suture. A small incision was made in the scapular area to serve as the exit site of the catheter. The catheter was subcutaneously tunneled and exteriorized through the scapular incision. A fixed suture was placed in the scapular region. The patency of the catheter was checked and then exteriorized from the subcutaneous space to the dorsal neck region. After gently wiping the area, the abdominal cavity was sutured. The left carotid artery was then cannulated by inserting a PESO catheter. Both the exteriorized catheters were tied firmly on the dorsal neck region and fixed. The animals was then allowed to recover in its cage and used for study at least 3 days after surgery. All catheters were flushed once daily with heparinized saline to maintain patency. Animals were fasted overnight (n=3) and administered vial oral gavage (10 mg/kg, 10 mL/kg). Blood samples (60 μL) were collected simultaneously from the portal and carotid artery catheters at 0.083, 0.25, 0.5, 1, 2, 4, 7, 24 h. All blood samples will be transferred into microcentrifuge tubes containing 2 μL of K2EDTA (0.5M) as anti-coagulant and placed on wet ice. Then blood samples will be processed for plasma by centrifugation at approximately 4° C., 3000 g within half an hour of collection. Plasma samples will be stored in polypropylene tubes, quick frozen over dry ice and kept at −70±10° C. until LC/MS/MS analysis. Pharmacokinetic parameters (mean±SD, n=3) of prodrugs and active forms in portal and carotid samples following oral administration of prodrugs (10 mg/kg) in portal vein cannulated rat were detected and analyzed.

[2] = Single dose PK study in male Wister-Han rats; assay type: in vivo; conditions: male, Wister-Han, rat, plasma, po, 5 mg/kg, 5 mg/kg oral dosing of active form
[3] = phase Ib, patients with chronic hepatitis B; cited from earlier work

| Structure (SMILES) | Ratio (EC50(prodrug)/EC50(active form)) (human TLR7; EC50 of prodrug over EC50 of corresponding active form) | EC50 (human TLR7; HEK293-Blue-hTLR-7 cells, SEAP reporter, 20 hrs, prodrug, read-out: HEK293-hTLR-7 EC50 (Prodrug)) | LYSA of Prodrugs (LYSA solubility study) | AUC(0-t) ([1]; carotid artery plasma, read-out: AUC0-2 (nM · h), prodrug, Carotid sampling) | Cmax ([1]; carotid artery plasma, read-out: Cmax (nM), prodrug, Carotid sampling) | Tmax ([1]; carotid artery plasma, read-out: Tmax (h), prodrug, Carotid sampling) | AUC(0-t) ([1]; portal vein plasma, read-out: AUC0-2 (nM · h), prodrug, Portal sampling) | Cmax ([1]; portal vein plasma, read-out: Cmax (nM), prodrug, Portal sampling) | Tmax ([1]; portal vein plasma, read-out: Tmax (h), prodrug, Portal sampling) | AUC(0-t) [2] | Cmax [2] | concentration at 0.25 h ([2]; 0.25 h) | concentration at 0.5 h ([2]; 0.5 h) | concentration at 1 h ([2]; 1 h) | concentration at 2 h ([2]; 2 h) | concentration at 4 h ([2]; 4 h) | concentration at 8 h ([2]; 8 h) | ISG15 mRNA induction [3] | safety and tolerability [3] |
| --- | --- | --- | --- | --- | --- | --- | --- | --- | --- | --- | --- | --- | --- | --- | --- | --- | --- | --- | --- |
| CCCN(C)C(=O)n1c(=O)n(Cc2ccccc2)c2nc(S(=N)(=O)CCC)nc(N)c21 (single isomer, unassigned) [Example 1-B] | 314.0 | 27 µM | 200 µg/mL | 0.04 µM·h | 70 nM | 0.083 h | 0.266 µM·h | 670 nM | 0.083 h | – | – | – | – | – | – | – | – | – | – |
| CCCCOc1nc(N)c2c(n1)N(Cc1cccc(CN3CCCC3)c1)CC(=O)N2 [GS9620, reference compound] | – | – | – | – | – | – | – | – | – | 0.316 µM·h | 164 nM | 56.3 nM | 33.2 nM | 83.4 nM | 136 nM | 16.7 nM | 9.49 nM | dose-dependent ISG15 mRNA induction | safe, well tolerated |
